From US7115611B2, “Phenyl derivatives, their manufacture and use as pharmaceutical agents” (Hoffmann-la Roche Inc., priority 2003, dated 2006)

| Compound | melting point |
| --- | --- |
| COCCCc1cc(N(C)Cc2ccc(-c3ccc(OC(F)(F)F)cc3)nc2)ccc1OCC(=O)O [Example 14, (2-(3-Methoxy-propyl)-4-{methyl-[6-(4-trifluoromethoxy-phenyl)-pyridin-3-ylmethyl]-amino}-phenoxy)-acetic acid] | 73 to 75 °C |
| Cc1cc(OCc2cnc(-c3ccc(C(F)(F)F)nc3)nc2CCO)ccc1OC(C)(C)C(=O)O [Example 103, 2-{4-[4-(2-Hydroxy-ethyl)-2-(6-trifluoromethyl-pyridin-3-yl)-pyrimidin-5-ylmethoxy]-2-methyl-phenoxy}-2-methyl-propionic acid] | 187 to 188 °C (dec.) |
| COCCCc1cc(N(C)Cc2ccc(-c3ccc(C(F)(F)F)cc3)nc2)ccc1OCC(=O)O [Example 16, (2-(3-Methoxy-propyl)-4-{methyl-[6-(4-trifluoromethyl-phenyl)-pyridin-3-ylmethyl]-amino}-phenoxy)-acetic acid] | 72 to 76 °C |
| Cc1cc(OCc2cnc(-c3ccc(C(F)(F)F)nc3)nc2C2CC2)ccc1OC(C)(C)C(=O)O [Example 105, 2-{4-[4-Cyclopropyl-2-(6-trifluoromethyl-pyridin-3-yl)-pyrimidin-5-ylmethoxy]-2-methyl-phenoxy}-2-methyl-propionic acid] | 185 to 185.5 °C |
| Cc1cc(OCc2ccc(-c3ccc(C(F)(F)F)cc3)nc2)ccc1OC(C)(C)C(=O)O [Example 9, 2-Methyl-2-{2-methyl-4-[6-(4-trifluoromethyl-phenyl)-pyridin-3-ylmethoxy]-phenoxy}-propionic acid] | 149 to 151 °C |
| Cc1cc(OCc2cnc(-c3ccc(C(F)(F)F)cc3)nc2C(F)(F)F)ccc1OC(C)(C)C(=O)O [Example 107, 2-Methyl-2-{2-methyl-4-[4-trifluoromethyl-2-(4-trifluoromethyl-phenyl)-pyrimidin-5-ylmethoxy]-phenoxy}-propionic acid] | 149 to 151 °C (dec.) |
| COCCCc1cc(N(C)Cc2ccc(-c3ccc(C(F)(F)F)cc3)nc2C)ccc1OCC(=O)O [Example 1, (2-(3-Methoxy-propyl)-4-{methyl-[2-methyl-6-(4-trifluoromethyl-phenyl)-pyridin-3-ylmethyl]-amino}-phenoxy)-acetic acid] | 72 to 73 °C |
| Cc1cc(OCc2cnc(-c3ccc(C(F)(F)F)cc3)cc2C(F)(F)F)ccc1OC(C)(C)C(=O)O [Example 108, 2-Methyl-2-{2-methyl-4-[4-trifluoromethyl-6-(4-trifluoromethyl-phenyl)-pyridin-3-ylmethoxy]-phenoxy}-propionic acid] | 148 to 149 °C |
| Cc1cc(OCc2ccc(-c3ccc(C(F)(F)F)cc3)nn2)ccc1OC(C)(C)C(=O)O [Example 44, 2-Methyl-2-{2-methyl-4-[6-(4-trifluoromethyl-phenyl)-pyridazin-3-ylmethoxy]-phenoxy]-propionic acid] | 191 to 192 °C |
| Cc1cc(OCc2cnc(-c3ccc(OC(F)(F)F)cc3)nc2C(F)(F)F)ccc1OC(C)(C)C(=O)O [Example 111, 2-Methyl-2-{2-methyl-4-[2-(4-trifluoromethoxy-phenyl)-4-trifluoromethyl-pyrimidin-5-ylmethoxy]-phenoxy}-propionic acid] | 153.5 to 154.5 °C |
| Cc1cc(OCc2ccc(-c3ccc(F)c(C(F)(F)F)c3)nc2C)ccc1OC(C)(C)C(=O)O [Example 24, 2-{4-[6-(4-Fluoro-3-trifluoromethyl-phenyl)-2-methyl-pyridin-3-ylmethoxy]-2-methyl-phenoxy}-2-methyl-propionic acid] | 141 to 143 °C |
| Cc1cc(N(C)Cc2ccc(-c3ccc(C(F)(F)F)cc3)nc2)ccc1OCC(=O)O [Example 15, (2-Methyl-4-{methyl-[6-(4-trifluoromethyl-phenyl)-pyridin-3-ylmethyl]-amino}-phenoxy)-acetic acid] | 199 °C |
| Cc1cc(OCc2cnc(-c3ccc(C(F)(F)F)cc3)nc2CCO)ccc1OC(C)(C)C(=O)O [Example 110, 2-{4-[4-(2-Hydroxy-ethyl)-2-(4-trifluoromethyl-phenyl)-pyrimidin-5-ylmethoxy]-2-methyl-phenoxy}-2-methyl-propionic acid] | 155 to 155.5 °C |
| Cc1cc(OCc2ccc(-c3ccc(OC(F)(F)F)cc3)nc2C2CC2)ccc1OC(C)(C)C(=O)O [Example 145, 2-{4-[2-Cyclopropyl-6-(4-trifluoromethoxy-phenyl)-pyridin-3-ylmethoxy]-2-methyl-phenoxy}-2-methyl-propionic acid] | 131 to 133 °C |
| Cc1cc(N(C)Cc2ccc(-c3ccc(C(F)(F)F)cc3)nc2C)cc(C)c1OCC(=O)O [Example 7, (2,6-Dimethyl-4-{methyl-[2-methyl-6-(4-trifluoromethyl-phenyl)-pyridin-3-ylmethyl]-amino}-phenoxy)-acetic acid] | 137 to 138 °C |
| CC(C)(Oc1ccc(OCc2cnc(-c3ccc(C(F)(F)F)cc3)nc2C2CC2)c(F)c1)C(=O)O [Example 141, 2-{4-[4-Cyclopropyl-2-(4-trifluoromethyl-phenyl)-pyrimidin-5-ylmethoxy]-3-fluoro-phenoxy}-2-methyl-propionic acid] | 177.5 to 178 °C |

The remaining lines, values ahead:

| melting point | Compound |
| --- | --- |
| 146 to 148 °C | Cc1cc(OCc2ccc(-c3ccc(OC(F)(F)F)cc3)nc2)ccc1OC(C)(C)C(=O)O [Example 10, 2-Methyl-2-{2-methyl-4-[6-(4-trifluoromethoxy-phenyl)-pyridin-3-ylmethoxy]-phenoxy}-propionic acid] |
| 129 to 131 °C | Cc1cc(SCc2cnc(-c3ccc(C(F)(F)F)cc3)nc2C2CC2)ccc1OC(C)(C)C(=O)O [Example 144, 2-{4-[4-Cyclopropyl-2-(4-trifluoromethyl-phenyl)-pyrimidin-5-ylmethylsulfanyl]-2-methyl-phenoxy}-2-methyl-propionic acid] |
| 140.5 to 141.5 °C (dec.) | COCCc1nc(-c2ccc(C(F)(F)F)nc2)ncc1COc1ccc(OC(C)(C)C(=O)O)c(C)c1 [Example 102, 2-{4-[4-(2-Methoxy-ethyl)-2-(6-trifluoromethyl-pyridin-3-yl)-pyrimidin-5-ylmethoxy]-2-methyl-phenoxy}-2-methyl-propionic acid] |
| 179 to 181 °C (dec.) | Cc1cc(OCc2cnc(-c3ccc(OC(F)(F)F)cc3)cc2Cl)ccc1OC(C)(C)C(=O)O [Example 109, 2-{4-[4-Chloro-6-(4-trifluoromethoxy-phenyl)-pyridin-3-ylmethoxy]-2-methyl-phenoxy}-2-methyl-propionic acid] |
| 175 to 176 °C | Cc1cc(OCc2ccc(-c3ccc(C(F)(F)F)c(F)c3)nc2C)ccc1OC(C)(C)C(=O)O [Example 38, 2-{4-[6-(3-Fluoro-4-trifluoromethyl-phenyl)-2-methyl-pyridin-3-ylmethoxy]-2-methyl-phenoxy}-2-methyl-propionic acid] |
| 174 to 176 °C | Cc1cc(N(C)Cc2ccc(-c3ccc(Cl)cc3)nc2)ccc1OCC(=O)O [Example 12, (4-{[6-(4-Chloro-phenyl)-pyridin-3-ylmethyl]-methyl-amino}-2-methyl-phenoxy)-acetic acid] |
| 119.5 to 120 °C | COCCc1nc(-c2ccc(C(F)(F)F)cc2)ncc1COc1ccc(OC(C)(C)C(=O)O)c(C)c1 [Example 140, 2-{4-[4-(2-Methoxy-ethyl)-2-(4-trifluoromethyl-phenyl)-pyrimidin-5-ylmethoxy]-2-methyl-phenoxy}-2-methyl-propionic acid] |
| 115 to 117 °C | Cc1cc(SC(C)c2ccc(-c3ccc(C(F)(F)F)cc3)nc2C)ccc1OCC(=O)O (racemic) [Example 17, [rac]-(2-Methyl-4-{1-[2-methyl-6-(4-trifluoromethyl-phenyl)-pyridin-3-yl]-ethylsulfanyl}-phenoxy)-acetic acid] |
| 120 to 121 °C | COCc1nc(-c2ccc(C(F)(F)F)cc2)ncc1COc1ccc(OC(C)(C)C(=O)O)c(C)c1 [Example 104, 2-{4-[4-Methoxymethyl-2-(4-trifluoromethyl-phenyl)-pyrimidin-5-ylmethoxy]-2-methyl-phenoxy}-2-methyl-propionic acid] |
| 126 to 128 °C | CCC(Sc1ccc(OCC(=O)O)c(C)c1)c1ccc(-c2ccc(C(F)(F)F)cc2)nc1C (racemic) [Example 18, [rac]-(2-Methyl-4-{1-[2-methyl-6-(4-trifluoromethyl-phenyl)-pyridin-3-yl]-propylsulfanyl}-phenoxy)-acetic acid] |
| 214 to 215 °C (dec.) | Cc1c(OCc2cnc(-c3ccc(C(F)(F)F)cc3)nc2C2CC2)ccc(OC(C)(C)C(=O)O)c1C [Example 106, 2-{4-[4-Cyclopropyl-2-(4-trifluoromethyl-phenyl)-pyrimidin-5-ylmethoxy]-2,3-dimethyl-phenoxy}-2-methyl-propionic acid] |
| 121 to 122 °C | COCc1nc(-c2ccc(C(F)(F)F)cc2)ccc1COc1ccc(OC(C)(C)C(=O)O)c(C)c1 [Example 45, 2-{4-[2-Methoxymethyl-6-(4-trifluoromethyl-phenyl)-pyridin-3-ylmethoxy]-2-methyl-phenoxy}-2-methyl-propionic acid] |
| 127 to 128 °C (dec.) | Cc1cc(SCc2cnc(-c3ccc(OC(F)(F)F)cc3)nc2C2CC2)ccc1OC(C)(C)C(=O)O [Example 142, 2-{4-[4-Cyclopropyl-2-(4-trifluoromethoxy-phenyl)-pyrimidin-5-ylmethylsulfanyl]-2-methyl-phenoxy}-2-methyl-propionic acid] |
| 137 to 138 °C | Cc1cc(N(C)Cc2ccc(-c3ccc(OC(F)(F)F)cc3)nc2)ccc1OCC(=O)O [Example 13, (2-Methyl-4-{methyl-[6-(4-trifluoromethoxy-phenyl)-pyridin-3-ylmethyl]-amino}-phenoxy)-acetic acid] |
| 168 to 169 °C | Cc1cc(OCc2ccc(-c3ccc(C(F)(F)F)cc3)nc2C)ccc1SCC(=O)O [Example 146, {2-Methyl-4-[2-methyl-6-(4-trifluoromethyl-phenyl)-pyridin-3-ylmethoxy]-phenylsulfanyl}-acetic acid] |
| 149 to 151 °C | Cc1cc(OCc2ccc(-c3ccc(OC(F)(F)F)cc3)nc2C)ccc1OC(C)(C)C(=O)O [Example 39, 2-Methyl-2-{2-methyl-4-[2-methyl-6-(4-trifluoromethoxy-phenyl)-pyridin-3-ylmethoxy]-phenoxy}-propionic acid] |
